# Test results from patent US11186577B2, “Vasopressin receptor antagonists and products and methods related thereto” (BlackThorn Therapeutics, Inc., priority 2017, dated 2021).
# pIC50: −log10 of the molar value. Where two headings read alike, the source gives them in different places.
# Key:
# [1] = system: MDR1-MDCK cells; assay: MDR1-MDCK effective efflux assay (Transwell, 10 μM, 1 hour), MDR1-MDCK cells; format: in vitro ADME; conditions: for Papp AB MDR1: MDR1-MDCK cells, apical to basolateral (A>B), 10 μM, 1 hour; for MDR1 EER / MDR1 ER: MDCK-MDR1
# Description: (§1) The MDR1-MDCK effective efflux assay was performed as described in the BioFocus Standard Operating Procedure, ADME-SOP-56. Both wild-type (WT) and MDR1-MDCK cells (Solvo Biotechnology) were seeded onto 24-well Transwell plates at 2.35×10^5 cells per well and used in confluent monolayers after a 3 day culture at 37° C. under 5% CO2. For both cell types, test and control compounds (propranolol, vinblastine) were added (10 μM, 0.1% DMSO final, n=2) to donor compartments of the Transwell plate assembly in assay buffer (Hanks balanced salt solution supplemented with 25 mM HEPES, adjusted to pH 7.4) for both apical to basolateral (A>B) and basolateral to apical (B>A) measurements. Incubations were performed at 37° C., with samples removed from both donor and acceptor chambers at T=0 and 1 hour and compound analysed by mass spectrometry (LC-MS/MS) including an analytical internal standard.
# (§2) Where V is the volume of each Transwell compartment (apical 125 basolateral 600 and concentrations are the relative MS responses for compound (normalized to internal standard) in the donor chamber before incubation and acceptor chamber at the end of the incubation. Area=area of cells exposed for drug transfer (0.33 cm2).
# (§3) Efflux ratios (Papp B>A/Papp A>B) were calculated for each compound from the mean Papp values in each direction for both wild-type and MDR1-MDCK cells.
# (§4) In order to confirm the involvement of MDR1 in any efflux seen, an “effective efflux ratio” (EER) was calculated by comparing compound efflux ratios (ER) in the two cell types, i.e. EER=ER(MDR1−MDCK)/ER(wild-type MDCK)
# (§5) This ratio illustrates the effect of the over-expressed MDR1 normalised for the background movement of compound through the wild-type cells.
# (§6) Lucifer Yellow (LY) was added to the apical buffer in all wells to assess viability of the cell layer. Compound recovery from the wells was determined from MS responses (normalized to internal standard) in donor and acceptor chambers at the end of incubation compared to response in the donor chamber pre-incubation.
# [2] = system: wild-type (WT) MDCK cells; assay: MDR1-MDCK effective efflux assay (Transwell, 10 μM, 1 hour), wild-type MDCK cells; format: in vitro ADME; conditions: for Papp AB WT: wild-type MDCK cells, apical to basolateral (A>B), 10 μM, 1 hour; for WT ER: MDCK
# Description: as §1, §2, §3, §4, §5, §6
# [3] = target: human Arginine Vasopressin Receptor 1a (AVPR1a) (Homo sapiens (Human), UniProt P37288); assay: Vasopressin V1A receptor antagonist assay (AVP-evoked calcium, FLIPR, CHO-AVPR1a cells); format: cell-based
# human Arginine Vasopressin Receptor 1a (AVPR1a), sequence (P37288 whole entry): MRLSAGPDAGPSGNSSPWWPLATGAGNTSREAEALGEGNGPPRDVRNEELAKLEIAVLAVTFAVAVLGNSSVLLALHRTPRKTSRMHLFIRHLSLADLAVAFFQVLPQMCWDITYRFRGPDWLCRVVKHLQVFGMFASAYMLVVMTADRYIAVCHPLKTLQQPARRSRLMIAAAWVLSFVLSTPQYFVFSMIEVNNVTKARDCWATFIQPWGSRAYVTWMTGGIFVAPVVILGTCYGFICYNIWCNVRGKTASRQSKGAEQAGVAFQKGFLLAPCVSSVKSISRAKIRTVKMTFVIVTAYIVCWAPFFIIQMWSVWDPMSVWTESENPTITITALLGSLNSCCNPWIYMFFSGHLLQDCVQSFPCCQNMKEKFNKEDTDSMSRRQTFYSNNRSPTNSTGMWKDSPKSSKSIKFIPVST
# Procedure, shortened: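 Antagonism measured as reduction of AVP (EC80, set each assay day) calcium response on FLIPR in dye-loaded CHO-AVPR1a cells. Compounds, 3 μM top in 10-point 1:3 dilution, in duplicate, added 15 min before agonist at 37° C.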
# [4] = target: human Oxytocin Receptor (hOTR) (Homo sapiens (Human), UniProt P30559); assay: Oxytocin receptor antagonist assay (oxytocin-evoked calcium, FLIPR, CHEM-1-hOTR cells); format: cell-based; conditions: read-out: OT IC50
# human Oxytocin Receptor (hOTR), sequence (P30559 whole entry): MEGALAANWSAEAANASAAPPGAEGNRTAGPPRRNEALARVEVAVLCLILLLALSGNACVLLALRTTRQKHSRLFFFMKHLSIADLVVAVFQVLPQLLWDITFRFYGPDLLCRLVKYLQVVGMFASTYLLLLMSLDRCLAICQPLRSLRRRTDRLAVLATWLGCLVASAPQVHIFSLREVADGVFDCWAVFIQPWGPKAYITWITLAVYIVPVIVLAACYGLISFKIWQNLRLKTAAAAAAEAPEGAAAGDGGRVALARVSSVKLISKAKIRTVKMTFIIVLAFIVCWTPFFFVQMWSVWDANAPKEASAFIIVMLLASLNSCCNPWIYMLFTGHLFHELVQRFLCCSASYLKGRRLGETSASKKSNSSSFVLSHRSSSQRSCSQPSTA
# Description: This assay was performed in CHEM-1 cells expressing the human Oxytocin Receptor (hOTR) to determine the inhibitory effect of the compounds of the invention on the human Oxytocin receptor. Oxytocin evokes an increase in intracellular calcium in CHEM-1-hOTR cells which is measured in a fluorescence assay on the FLIPR^TETRA using calcium sensitive dyes. Test compounds were assessed for their ability to affect the magnitude of the response to oxytocin, with antagonists showing a concentration-dependent reduction in the oxytocin-mediated fluorescence.
# CHEM-1-hOTR ready was used to assay frozen cells (Eurofins #HTS090RTA) which are supplied with a proprietary Media Component.
# Cells were thawed in a 37° C. water bath and diluted with the supplied Media Component to a final volume of 10 ml. The cell suspension was centrifuged at 1000 rpm for 3 min at room temperature and the supernatant was discarded. The cell pellet was resuspended in Media Component (10.5 ml) and the cells (25 μL) were dispensed into a poly-D-lysine coated black, clear bottomed, 384-well plate. The plates were incubated overnight at 37° C., 5% CO2.
# At the start of each assay day the potency of oxytocin was assessed and an EC80 concentration was determined for subsequent compound profiling. Assays were performed using a two-step addition protocol on the FLIPR^TETRA; first addition of 5 μl of control or test compound at 10× final in assay buffer with 15 min incubation at 37° C., 5% CO2 followed by 10 μl of oxytocin at 6× final concentration in assay buffer. Changes in fluorescence were monitored for 3 min after both additions on the FLIPR^TETRA using 470-495 nm excitation and 515-575 nm emission wavelengths. The assay buffer consisted of HBSS (+Ca/+Mg) supplemented with 20 mM HEPES, and for the preparation of the oxytocin agonist only, 0.1% w/v bovine serum albumin. The assay was initiated by the removal of growth media from the cells and replaced with 45 μl of Calcium-6 dye (Molecular Devices) prepared at 1× in assay buffer. Cells were loaded with dye for 60-90 min at 37° C., 5% CO2 before initiation of the FLIPR^TETRA protocol. […] For compound profiling, test compounds were first serially diluted in DMSO (10-point curve, 1:3 dilutions) then diluted 33.3-fold in assay buffer prior to addition to the dye loaded cells on the FLIPR^TETRA. At the end of the incubation period 10 μl of oxytocin in assay buffer containing 0.1% BSA was added at the previously determined EC80 concentration.
# In-plate controls for the assay include a L-368,899 concentration-response curve as the reference OTR antagonist and an oxytocin concentration-response curve to confirm the reproducibility of the EC80 used for the compound challenge.
# [5] = system: MDR1 (P-glycoprotein); assay: MDR1-MDCK effective efflux assay (Transwell, 10 μM, 1 hour), MDR1-MDCK cells; format: in vitro ADME; conditions: dog
# Description: as §1, §2, §3, §4, §5, §6
# [6] = MDR1-MDCK effective efflux assay (Transwell, 10 μM, 1 hour), wild-type MDCK cells; format: in vitro ADME; conditions: dog, MDCK
# Description: as §1, §2, §3, §4, §5, §6
# [7] = target: human Arginine Vasopressin Receptor V2 (AVPR2) (Homo sapiens (Human), UniProt P30518); assay: Vasopressin V2 receptor antagonist assay (cAMP TR-FRET, 1321N1 cells); format: cell-based
# human Arginine Vasopressin Receptor V2 (AVPR2), sequence (P30518 whole entry): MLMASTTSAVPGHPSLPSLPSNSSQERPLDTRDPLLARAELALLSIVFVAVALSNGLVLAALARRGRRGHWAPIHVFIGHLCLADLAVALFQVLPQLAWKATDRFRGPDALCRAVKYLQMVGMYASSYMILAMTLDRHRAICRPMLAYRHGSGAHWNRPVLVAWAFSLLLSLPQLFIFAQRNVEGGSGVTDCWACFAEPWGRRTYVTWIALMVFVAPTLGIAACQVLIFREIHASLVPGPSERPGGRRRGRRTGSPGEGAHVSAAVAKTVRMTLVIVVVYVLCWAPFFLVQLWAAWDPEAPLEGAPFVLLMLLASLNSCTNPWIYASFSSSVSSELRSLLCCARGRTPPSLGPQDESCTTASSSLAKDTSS
# Description: The purpose of the assay was to determine the inhibitory effect of synthesized compounds on the Vasopressin receptor 2. […] Arginine Vasopressin (AVP) evokes an increase in intracellular cAMP in these cells which is measured in a TR-FRET assay using a Europium cAMP tracer and ULight labelled antibody reagents contained in a LANCE Ultra cAMP kit (Perkin Elmer #TRF0263). […] Test compounds were assessed for their ability to affect the magnitude of the response to AVP, with antagonists showing a concentration-dependent decrease in the AVP-mediated reduction in TR-FRET signal.
# cAMPZen V2 assay ready cells were thawed at 37° C. and resuspended directly from frozen in 9 ml growth medium consisting of DMEM supplemented with 10% v/v fetal bovine serum, 1× non-essential amino acids, and 1 mM sodium pyruvate. Cells were spun at 1000 rpm for 3 minutes and the supernatant was carefully removed and discarded. The pellet was resuspended in 5 ml stimulation buffer and the cell density determined using the Vi-Cell automated cell counter. The cell suspension was diluted to a 0.2×10^6/ml suspension ready for plating. […] Stimulation buffer consisted of HBSS (+Ca/+Mg) supplemented with 5 mM HEPES, 0.1% BSA stabiliser and 0.5 mM IBMX.
# At the start of each assay day the potency of AVP was assessed and an EC80 concentration determined for subsequent compound profiling. Assays were performed by first an addition of 2.5 μl of control or test compound at 4× final concentration in stimulation buffer followed by 2.5 μl of AVP at 4× final concentration in stimulation buffer. After a 1 hour reaction, detection reagents were added by first an addition of 5 μl EU-cAMP tracer, followed by 5 μl ULight-anti-cAMP both diluted as per the manufacturer's instructions. […] For compound profiling, test compounds were dispensed by the Labcyte Echo (10-point curve, 1:3 dilutions) in a target 0.1 μl volume then diluted 750-fold in stimulation buffer containing 3% DMSO prior to addition to the cells. At the end of the incubation period, 2.5 μl of AVP in stimulation buffer was added at the previously determined EC80 concentration.
# [8] = MDCK-MDR1, pH 7.4, Papp AB MDR1
# [9] = MDCK-MDR1, pH 7.4, MDR1-MDCK cells, apical to basolateral (A>B), 10 μM, 1 hour, read-out: Papp AB MDR1
# [10] = pH 7.4, wild-type MDCK cells, apical to basolateral (A>B), 10 μM, 1 hour, read-out: Papp AB WT
SMILES,pIC50 ([3]; read-out: V1a IC50),pIC50 [4],"Papp A→B at 1 h, 10 μM [5, 9] [×10⁻⁶ cm/s]","Papp A→B at 1 h, 10 μM [6, 10] [×10⁻⁶ cm/s]",other results
"CCOC(=O)N1Cc2cc(Cl)ccc2-n2c(C3CC4(C3)CN(c3ncc(F)cn3)C4)nnc2C1C (single isomer, unassigned) [Cpd 172A]",> 7.00,,,,Papp AB MDR1 [1]: ++++ ((++++) denotes >20 (10^-6 cm/sec)); Papp AB WT [2]: ++++ ((++++) denotes >20 (10^-6 cm/sec))
"COC(=O)N1Cc2cc(Cl)ccc2-n2c(C3CC4(C3)CN(c3ccncn3)C4)nnc2C1C (single isomer, unassigned) [Cpd 184A]",> 7.00,,,,Papp AB WT [2]: ++++ ((++++) denotes >20 (10^-6 cm/sec))
"CC1c2nnc(C3CC4(C3)CN(c3ncc(F)cn3)C4)n2-c2ccc(Cl)cc2CN1C(=O)OC(CF)CF (single isomer, unassigned) [Cpd 194A]",> 7.00,,,,Papp AB WT [2]: ++++ ((++++) denotes >20 (10^-6 cm/sec))
"CC1c2nnc(C3CC4(C3)CN(c3ncccn3)C4)n2-c2ccc(Cl)cc2CN1C(=O)OC(CF)CF (single isomer, unassigned) [Cpd 202B]",< 6.00,< 6.00,,,Papp AB MDR1 [1]: + ((+) denotes an apparent permeability <7 (10^-6 cm/sec)); Papp AB WT [2]: ++++ ((++++) denotes >20 (10^-6 cm/sec))
COc1ccc2c(c1)CN(C)Cc1nnc(C3CC4(C3)CN(c3cnccn3)C4)n1-2 [compound 19],,,,,"MDR1 EER [1]: +; MDR1 ER [1]: +; Papp A→B at 1 h, 10 μM [5, 8]: < 7 ×10⁻⁶ cm/s; WT ER [2]: +++; Papp A→B at 1 h, 10 μM ([6]; pH 7.4, Papp AB WT): > 20 ×10⁻⁶ cm/s"
COC(=O)N1Cc2cc(Cl)ccc2-n2c(nnc2C2CC3(C2)CN(c2cccnn2)C3)C1 [compound 75],> 7.00,,,,"MDR1 EER [1]: +; MDR1 ER [1]: +; Papp A→B at 1 h, 10 μM [5, 8]: < 7 ×10⁻⁶ cm/s; Papp A→B at 1 h, 10 μM ([6]; pH 7.4, Papp AB WT): 10 to 20 ×10⁻⁶ cm/s"
"COC(=O)N1Cc2cc(Cl)ccc2-n2c(nnc2C2CC3(C2)CN(c2cccc(C#N)n2)C3)C1 [compound 91, methyl 8-chloro-1-(2-(6-cyanopyridin-2-yl)-2-azaspiro[3.3]heptan-6-yl)-4H-benzo[f][1,2,4]triazolo[4,3-a][1,4]diazepine-5(6H)-carboxylate]",> 7.00,6.00 to 6.30,< 7,> 20,
COC(=O)N1Cc2cc(Cl)ccc2-n2c(nnc2C2CC3(C2)CN(c2ncccn2)C3)C1 [compound 95],> 7.00,6.00 to 6.30,< 7,> 20,
CC(C)OC(=O)N1Cc2cc(Cl)ccc2-n2c(nnc2C2CC3(C2)CN(c2ccc(F)cn2)C3)C1 [compound 111],> 7.00,6.30 to 7.00,> 20,> 20,
CC(C)OC(=O)N1Cc2cc(Cl)ccc2-n2c(nnc2C2CC3(C2)CN(c2ncncc2F)C3)C1 [compound 185],> 7.00,6.00 to 6.30,> 20,> 20,
CC1c2nnc(C3CC4(C3)CN(c3ccc(F)cn3)C4)n2-c2ccc(Cl)cc2CN1C(=O)OC1CCC1 (stereo not drawn) [compound 195],,,,,"MDR1 EER [1]: ++++; MDR1 ER [1]: +++; Papp A→B at 1 h, 10 μM [5, 8]: > 20 ×10⁻⁶ cm/s; WT ER [2]: +++; Papp A→B at 1 h, 10 μM ([6]; pH 7.4, Papp AB WT): 10 to 20 ×10⁻⁶ cm/s"
"CCC1c2nnc(C3CC4(C3)CN(c3ccc(F)cn3)C4)n2-c2ccc(Cl)cc2CN1C(=O)OC (stereo not drawn) [compound 197, methyl 8-chloro-4-ethyl-1-(2-(5-fluoropyridin-2-yl)-2-azaspiro[3.3]heptan-6-yl)-4H-benzo[f][1,2,4]triazolo[4,3-a][1,4]diazepine-5(6H)-carboxylate]",,,> 20,> 20,pIC50 [3]: 6.30 to 7.00
"O=C1OCC2c3nnc(C4CC5(C4)CN(c4ccc(F)cn4)C5)n3-c3ccc(Cl)cc3CN12 (stereo not drawn) [compound 200, 7-chloro-3-(2-(5-fluoropyridin-2-yl)-2-azaspiro[3.3]heptan-6-yl)-13,13a-dihydro-9H,11H-benzo[e]oxazolo[3,4-a][1,2,4]triazolo[3,4-c][1,4]diazepin-11-one]",,,< 7,> 20,pIC50 [3]: 6.30 to 7.00
Cc1nc(N2CC3(CC(c4nnc5n4-c4ccc(Cl)cc4CN(C4CC4)C5)C3)C2)ccc1F [compound 229],> 7.00,6.00 to 6.30,,,pIC50 [7]: > 7.00
